# From patent US20230124467A1, “COMPOUNDS AND METHODS FOR TREATING DISEASES AND/OR CONDITIONS CAUSED BY CORONAVIRUS” (priority 2020, published 2023)
# Counter-ions that a name gives are not always drawn. Like-named read-outs stand apart in the source and are kept apart here.
# Key:
# Format in all cases: cell-based
# [1] = test system: VeroE6 cells; experiment: Evaluation of toxicity without virus (CPE and MTT assay), Example 1; conditions: for Minimum Cytotoxicity: absence of virus, 72 h
# Procedure: Serially diluted compounds (⅒ dilution) were added in each well in the absence of virus and incubated for 72 hours, and at end point the CPE was recorded as above. In parallel, a duplicate plate was set up for an MTT assay (Abcam Ab 211091) carried out following the manufacturer’s recommendations. Briefly, the culture medium was discarded and 50 µl of fresh medium and MTT reagent was added to each well, including a background (no cell) control. The plates were returned to the 37° C. incubator for 3 hours before the MTT/media solution was discarded and 150 µl of MTT solvent was added to each well. The plates were incubated for a further 15 minutes in foil on a hula mixer and the absorbance recorded at 590 nm. The percentage of cytotoxicity was calculated as follows: (DMSO control - sample)/DMSO control, after replicate values were averaged and corrected for the background control (no cell control).
# [2] = test system: SARS-CoV-2; experiment: In vitro antiviral assay, development of cytopathic effects (CPE), Example 1; conditions: for minimal effective concentration: ten-fold dilutions from 25 µM, read-out: Initial titre (Minimum concentration of drug inhibiting development of CPE)
# [3] = test system: SARS-CoV-2; experiment: microbe, parasite or virus in culture
# [4] = Severe acute respiratory syndrome coronavirus 2, Vero C1008, 20 PFU/well SARS-CoV-2, VeroE6 cells, 72 h
# [5] = Severe acute respiratory syndrome coronavirus 2, Vero C1008, 72 h, 20 PFU/well SARS-CoV-2, VeroE6 cells, 72 h, narrower dilution steps in quadruplicate, read-out: Repeat TCID50 (TCID50 measurement for drugs showing greatest initial efficacy on titration)
# [6] = Severe acute respiratory syndrome coronavirus 2, Vero C1008, Table 3A, predetermined IC50 of individual drug, Vero-E6, 20 pfu/well, read-out: IC50 (drug used alone)
# [7] = Severe acute respiratory syndrome coronavirus 2, Vero C1008, Vero-E6, 20 pfu/well, 72 h, read-out: IC50 measured when each drug used individually
# [8] = Severe acute respiratory syndrome coronavirus 2, Vero C1008, 72 h, read-out: IC50 measured when each drug used individually
# [9] = Severe acute respiratory syndrome coronavirus 2, Vero C1008, read-out: IC50 (drug used alone)
structure (smiles),measurement,setting,value
COC(=O)N[C@H](C(=O)N[C@@H](Cc1ccccc1)[C@@H](O)CN(Cc1ccc(-c2ccccn2)cc1)NC(=O)[C@@H](NC(=O)OC)C(C)(C)C)C(C)(C)C [Atazanavir],Minimum Cytotoxicity,[1],>25 µM
same,minimal effective concentration,[2]; [4],> 25 µM
C[C@H]1[C@H](NC(=O)/C(=N\OC(C)(C)C(=O)O)c2csc(N)n2)C(=O)N1S(=O)(=O)O [Aztreonam],Minimum Cytotoxicity,[1],>25 µM
same,minimal effective concentration,[2]; [4],> 25 µM
CC(C)c1nc(CN(C)C(=O)N[C@@H](CCN2CCOCC2)C(=O)N[C@H](CC[C@H](Cc2ccccc2)NC(=O)OCc2cncs2)Cc2ccccc2)cs1 [Cobicistat],Minimum Cytotoxicity,[1],>25 µM
same,minimal effective concentration,[2]; [4],> 25 µM
Nc1nc(F)nc2c1ncn2[C@@H]1O[C@H](COP(=O)(O)O)[C@@H](O)[C@@H]1O [Fludarabine phosphate],Minimum Cytotoxicity,[1],25 µM
same,cytotoxicity in the MTT assay,[1]; at 2.5 µM,none
same,cytotoxicity in the MTT assay,[1]; at 25 µM,showed cytotoxicity
Nc1nc(=O)c2c([nH]1)NCC(CNc1ccc(C(=O)N[C@@H](CCC(=O)[O-])C(=O)[O-])cc1)N2C=O.[Ca+2] (some centres unmarked) [Folinic acid calcium salt hydrate],Minimum Cytotoxicity,[1],>25 µM
same,minimal effective concentration,"[2]; 20 PFU/well SARS-CoV-2, VeroE6 cells, 72 h",>25 µM
CCN(CCO)CCCC(C)Nc1ccnc2cc(Cl)ccc12 (centres unmarked) [Hydroxychloroquine],Minimum Cytotoxicity,[1],25 µM
same,cytotoxicity in the MTT assay,[1]; at 2.5 µM,none
same,cytotoxicity in the MTT assay,[1]; at 25 µM,showed cytotoxicity
same,IC50,"[2]; 20 PFU/well SARS-CoV-2, VeroE6 cells, 72 h, narrower dilution steps in quadruplicate, read-out: Repeat TCID50 (TCID50 measurement for drugs showing greatest initial efficacy on titration)",2900 nM
same,IC50,[2]; [5],2000 nM
same,minimal effective concentration,[2]; [4],25 µM
same,IC50,[3]; [6],1580 nM
same,IC50,[3]; [7],1580 nM
CC(C)(C)NC(=O)[C@@H]1CN(Cc2cccnc2)CCN1C[C@@H](O)C[C@@H](Cc1ccccc1)C(=O)N[C@H]1c2ccccc2C[C@H]1O [Indinavir sulfate],Minimum Cytotoxicity,[1],>25 µM
CS(=O)(=O)c1cccc(C[C@H](NC(=O)c2c(Cl)cc3c(c2Cl)CCN(C(=O)c2ccc4ccoc4c2)C3)C(=O)O)c1 [Lifitegrast],Minimum Cytotoxicity,[1],>25 µM
same,minimal effective concentration,[2]; [4],> 25 µM
CCCNS(=O)(=O)Nc1ncnc(OCCOc2ncc(Br)cn2)c1-c1ccc(Br)cc1 [Macitentan],Minimum Cytotoxicity,[1],>25 µM
same,minimal effective concentration,[2]; [4],> 25 µM
Cc1c(O)cccc1C(=O)N[C@@H](CSc1ccccc1)[C@H](O)CN1C[C@H]2CCCC[C@H]2C[C@H]1C(=O)NC(C)(C)C [Nelfinavir mesylate],Minimum Cytotoxicity,[1],25 µM
same,cytotoxicity in the MTT assay,[1]; at 2.5 µM,none
same,cytotoxicity in the MTT assay,[1]; at 25 µM,showed cytotoxicity
same,IC50,"[2]; Severe acute respiratory syndrome coronavirus 2, Vero C1008, 72 h, read-out: Repeat TCID50 (TCID50 measurement for drugs showing greatest initial efficacy on titration), 20 PFU/well SARS-CoV-2, VeroE6 cells, 72 h, narrower dilution steps in quadruplicate",2900 nM
same,IC50,"[2]; read-out: Repeat TCID50 (TCID50 measurement for drugs showing greatest initial efficacy on titration), 20 PFU/well SARS-CoV-2, VeroE6 cells, 72 h, narrower dilution steps in quadruplicate",2000 nM
same,IC50,[3]; [8],390 nM
same,IC50,[3]; [9],390 nM
Cc1onc(-c2ccccc2)c1C(=O)N1CCN(c2ccc([N+](=O)[O-])cc2Cl)CC1 [Nucleozin],Minimum Cytotoxicity,[1],>25 µM
same,minimal effective concentration,[2]; [4],> 25 µM
CCC(CC)COC(=O)[C@H](C)N[P@](=O)(OC[C@H]1O[C@@](C#N)(c2ccc3c(N)ncnn23)[C@H](O)[C@@H]1O)Oc1ccccc1 [Remdesivir],IC50,[3]; [8],1560 nM
same,IC50,[3]; [9],1560 nM
Cc1cc(/C=C/C#N)cc(C)c1Nc1ccnc(Nc2ccc(C#N)cc2)n1 [Rilpivirine hydrochloride],Minimum Cytotoxicity,[1],>25 µM
same,minimal effective concentration,[2]; [4],> 25 µM
Cn1nnc(-c2ccc(-c3ccc(N4C[C@H](COP(=O)(O)O)OC4=O)cc3F)cn2)n1 [Tedizolid phosphate],Minimum Cytotoxicity,[1],>25 µM
same,minimal effective concentration,[2]; [4],> 25 µM
"CCCc1nc(C)c2c(=O)[nH]c(-c3cc(S(=O)(=O)N4CCN(CC)CC4)ccc3OCC)nn12 [Vardenafil hydrochloride trihydrate, 2-[2-ethoxy-5-(4-ethylpiperazin-1-yl)sulfonylphenyl]-5-methyl-7-propyl-3H-imidazo[5,1-f][1,2,4]triazin-4-one]",Minimum Cytotoxicity,[1],>25 µM
same,IC50,[2]; [5],> 25000 nM
same,minimal effective concentration,[2]; [4],25 µM
same,IC50,[3]; [6],6250 nM
same,IC50,[3]; [7],6250 nM
